# pEC50, pIC50: −log10 of the molar value. Calls of active or inactive are those of the source. No cut-off for these calls is given here.
# Test system: MCF7
# Test: Cytotoxic activity against human MCF7 cells assessed as reduction in cell viability after 24 hrs by MTT assay
# Settings: MCF7, 24 h
row,SMILES,pEC50
1,COc1ccc(Nc2nc(N)nc(CSC(=S)N3CCOCC3)n2)cc1,3.89

# Test system: HepG2
# Test: Cytotoxic activity against human HepG2 cells assessed as reduction in cell viability at 50 to 100 uM after 24 hrs by MTT assay
# Format: functional, cell-based
# Settings: not given
row,SMILES,inhibition
1,COc1ccc(Nc2nc(N)nc(CSC(=S)N3CCOCC3)n2)cc1,Active

# Test system: MCF7
# Test: Cytotoxic activity against human MCF7 cells assessed as reduction in cell viability at 6.25 to 25 after 24 hrs by MTT assay
# Format: functional, cell-based
# Settings: not given
row,SMILES,inhibition
1,COc1ccc(Nc2nc(N)nc(CSC(=S)N3CCOCC3)n2)cc1,inactive

# Test system: HUVEC
# Test: Cytotoxic activity against HUVEC assessed as reduction in cell viability after 24 hrs by MTT assay
# Format: cell-based, Homo sapiens
# Settings: Homo sapiens, HUVEC
row,SMILES,pEC50
1,COc1ccc(Nc2nc(N)nc(CSC(=S)N3CCOCC3)n2)cc1,3.91

# Same assay, conditions: human, huvec
row,SMILES,inhibition (INH)
1,COc1ccc(Nc2nc(N)nc(CSC(=S)N3CCOCC3)n2)cc1,Dose-dependent effect

# Test system: HepG2
# Test: Cytotoxic activity against human HepG2 cells assessed as reduction in cell viability at 6.25 to 25 after 24 hrs by MTT assay
# Format: functional, cell-based
# Settings: not given
row,SMILES,inhibition
1,COc1ccc(Nc2nc(N)nc(CSC(=S)N3CCOCC3)n2)cc1,inactive

# Target: DNA topoisomerase 2-alpha (Homo sapiens, UniProt P11388)
# Sequence (P11388 whole entry): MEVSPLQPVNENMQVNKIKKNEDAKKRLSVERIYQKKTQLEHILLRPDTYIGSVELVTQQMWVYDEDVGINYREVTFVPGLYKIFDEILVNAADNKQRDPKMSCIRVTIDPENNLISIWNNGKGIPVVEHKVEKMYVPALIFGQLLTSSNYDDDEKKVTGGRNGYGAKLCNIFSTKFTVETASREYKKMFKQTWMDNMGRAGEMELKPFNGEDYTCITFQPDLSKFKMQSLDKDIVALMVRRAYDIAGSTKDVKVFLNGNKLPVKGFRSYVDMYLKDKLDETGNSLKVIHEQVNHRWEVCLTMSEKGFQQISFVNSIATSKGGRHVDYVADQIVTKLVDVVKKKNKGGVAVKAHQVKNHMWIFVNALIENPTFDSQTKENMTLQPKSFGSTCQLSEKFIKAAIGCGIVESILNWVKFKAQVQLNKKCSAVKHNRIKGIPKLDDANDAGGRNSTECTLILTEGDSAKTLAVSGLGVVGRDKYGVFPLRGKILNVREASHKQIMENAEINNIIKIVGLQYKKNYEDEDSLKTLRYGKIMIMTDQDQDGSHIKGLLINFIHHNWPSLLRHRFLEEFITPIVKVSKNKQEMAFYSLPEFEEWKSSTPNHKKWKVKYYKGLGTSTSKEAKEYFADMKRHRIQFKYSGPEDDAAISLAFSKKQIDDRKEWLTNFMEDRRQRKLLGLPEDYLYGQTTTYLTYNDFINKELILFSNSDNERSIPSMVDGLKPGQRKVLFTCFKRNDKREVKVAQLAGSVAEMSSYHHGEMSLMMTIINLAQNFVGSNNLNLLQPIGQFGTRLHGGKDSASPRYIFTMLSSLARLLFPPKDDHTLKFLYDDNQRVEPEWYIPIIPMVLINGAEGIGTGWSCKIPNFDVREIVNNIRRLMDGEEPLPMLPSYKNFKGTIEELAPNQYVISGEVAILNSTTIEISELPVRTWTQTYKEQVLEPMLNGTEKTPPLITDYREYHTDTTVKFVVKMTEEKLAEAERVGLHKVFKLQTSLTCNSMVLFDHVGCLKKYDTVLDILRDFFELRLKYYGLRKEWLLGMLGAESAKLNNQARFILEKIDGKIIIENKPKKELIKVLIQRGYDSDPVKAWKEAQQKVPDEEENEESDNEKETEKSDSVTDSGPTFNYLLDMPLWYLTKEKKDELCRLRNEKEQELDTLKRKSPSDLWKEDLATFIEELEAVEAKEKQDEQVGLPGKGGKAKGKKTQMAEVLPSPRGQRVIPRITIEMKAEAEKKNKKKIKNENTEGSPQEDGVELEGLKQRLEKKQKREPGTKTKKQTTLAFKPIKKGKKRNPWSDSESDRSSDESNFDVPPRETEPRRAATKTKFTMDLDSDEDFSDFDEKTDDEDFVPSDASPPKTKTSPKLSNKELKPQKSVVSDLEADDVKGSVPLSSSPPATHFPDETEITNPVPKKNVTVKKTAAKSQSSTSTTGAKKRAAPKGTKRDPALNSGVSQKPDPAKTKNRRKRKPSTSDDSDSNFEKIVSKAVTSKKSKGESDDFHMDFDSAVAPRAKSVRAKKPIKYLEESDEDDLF
# Test: Inhibition of human DNA topoisomerase 2alpha using plasmid pNO1 substrate incubated at 37 degC for 30 mins by fluorimetry
# Settings: not given
row,SMILES,pIC50
1,Cc1cc(CNc2nc3c(cc2C(N)=O)CCC3)ccn1,< 3.00
2,Nc1nc(CSC2CCCC2)nc(Nc2ccc(F)cc2)n1,< 3.00
3,Nc1nc(CSc2nnn[nH]2)nc(Nc2ccc(F)cc2)n1,3.47
4,COc1cccc(C(=O)NCc2nnc(S)n2-c2ccc(Cl)c(Cl)c2)c1,< 3.00
5,Nc1nc(CSc2nnnn2C2CCCC2)nc(Nc2ccc(F)cc2)n1,< 3.00
6,O=C(NCc1n[nH]c(=S)n1-c1ccc(F)cc1)c1ccccc1F,< 3.00
7,COc1ccc(CNc2ncccc2C(N)=O)cc1OC,< 3.00
8,Cc1cc(O)nc(N/N=C\c2ccncc2)n1,< 3.00
9,Cn1nnnc1SCc1nc(N)nc(Nc2ccc(F)cc2)n1,< 3.00
10,CN1CCN(C(=S)SCc2nc(N)nc(Nc3ccc(F)cc3)n2)CC1,< 3.00
11,Nc1nc(N)nc(CSc2nnc(-c3cccnc3)o2)n1,< 3.00
12,CCCn1ccnc1SCc1nc(N)nc(Nc2ccc(F)cc2)n1,< 3.00
13,Nc1nc(CSC(=S)N2CCOCC2)nc(Nc2ccc(F)cc2)n1,3.86
14,Cc1cc(O)nc(NCCCn2ccnc2)n1,< 3.00
15,COc1ccc(Nc2nc(N)nc(CSC(=S)N3CCOCC3)n2)cc1,3.64
16,O=C(NCc1n[nH]c(=S)n1-c1ccccc1)c1ccccc1C(F)(F)F,< 3.00
17,Nc1nc(SCCc2ccccc2)c2nc[nH]c2n1,4.07
18,Nc1nc(CSc2nnc(C3CC3)o2)nc(Nc2ccc(F)cc2)n1,< 3.00
19,Cc1cc(O)nc(N/N=C\c2cccnc2)n1,< 3.00
20,C[C@H](Sc1nc(N)cc(O)n1)C(=O)N1CCOCC1,< 3.00
21,Cc1cc(CNc2nc(C)ccc2C(N)=O)ccn1,< 3.00
22,COc1cccc(C(=O)NCc2n[nH]c(=S)n2-c2ccccc2Cl)c1,< 3.00
23,C[C@H](Sc1nc(N)nc(N)n1)C(=O)N1CCOCC1,< 3.00
24,COc1ccc(Nc2nc(N)nc(CSC(=S)N3CCCCC3)n2)cc1,< 3.00
25,CN(C(=S)SCc1nc(N)nc(Nc2ccc(F)cc2)n1)C1CCCCC1,< 3.00
26,Cc1cc(CNc2ncccc2C(N)=O)ccn1,< 3.00

# Test system: MCF7
# Test: Cytotoxic activity against human MCF7 cells assessed as reduction in cell viability at 200 uM after 24 hrs by MTT assay
# Format: functional, cell-based
# Settings: not given
row,SMILES,inhibition
1,COc1ccc(Nc2nc(N)nc(CSC(=S)N3CCOCC3)n2)cc1,Active

# Test system: not listed separately
# Test: Cytotoxic activity against HUVEC assessed as reduction in cell viability at 200 uM after 24 hrs by MTT assay
# Format: cell-based
# Settings: human, HUVEC cells; read-out: INH
row,SMILES,"cytotoxicity at 24 h, 200 µM [%]"
1,COc1ccc(Nc2nc(N)nc(CSC(=S)N3CCOCC3)n2)cc1,90

# Test system: HepG2
# Test: Cytotoxic activity against human HepG2 cells assessed as reduction in cell viability at 200 uM after 24 hrs by MTT assay
# Format: functional
# Settings: HepG2, 24 h
row,SMILES,inhibition at 200 µM [%]
1,COc1ccc(Nc2nc(N)nc(CSC(=S)N3CCOCC3)n2)cc1,90

# Test system: HepG2
# Test: Cytotoxic activity against human HepG2 cells assessed as reduction in cell viability after 24 hrs by MTT assay
# Settings: HepG2, 24 h
row,SMILES,pEC50
1,COc1ccc(Nc2nc(N)nc(CSC(=S)N3CCOCC3)n2)cc1,4.69
